Experimental findings from BindingDB's records for doi:10.1021/acs.jmedchem.9b01227 (Johann Wolfgang Goethe-University, 2019) are described below.

The test addresses Mitogen-activated protein kinase kinase kinase 20 (ZAK) (Homo sapiens) (UniProt Q9NYL2). Put plainly: Inhibition of ZAK (unknown origin) expressed in human HEK293 cells incubated for 2 hrs followed by NanoBRET NanoGlo Substrate addition by NanoBRET assay. A general note: Bioluminescence resonance energy transfer reports proximity on the nanometre scale.

Each structure is given as a SMILES string.

Mitogen-activated protein kinase kinase kinase 20 (ZAK) (Homo sapiens), sequence (Q9NYL2 whole entry, looked up): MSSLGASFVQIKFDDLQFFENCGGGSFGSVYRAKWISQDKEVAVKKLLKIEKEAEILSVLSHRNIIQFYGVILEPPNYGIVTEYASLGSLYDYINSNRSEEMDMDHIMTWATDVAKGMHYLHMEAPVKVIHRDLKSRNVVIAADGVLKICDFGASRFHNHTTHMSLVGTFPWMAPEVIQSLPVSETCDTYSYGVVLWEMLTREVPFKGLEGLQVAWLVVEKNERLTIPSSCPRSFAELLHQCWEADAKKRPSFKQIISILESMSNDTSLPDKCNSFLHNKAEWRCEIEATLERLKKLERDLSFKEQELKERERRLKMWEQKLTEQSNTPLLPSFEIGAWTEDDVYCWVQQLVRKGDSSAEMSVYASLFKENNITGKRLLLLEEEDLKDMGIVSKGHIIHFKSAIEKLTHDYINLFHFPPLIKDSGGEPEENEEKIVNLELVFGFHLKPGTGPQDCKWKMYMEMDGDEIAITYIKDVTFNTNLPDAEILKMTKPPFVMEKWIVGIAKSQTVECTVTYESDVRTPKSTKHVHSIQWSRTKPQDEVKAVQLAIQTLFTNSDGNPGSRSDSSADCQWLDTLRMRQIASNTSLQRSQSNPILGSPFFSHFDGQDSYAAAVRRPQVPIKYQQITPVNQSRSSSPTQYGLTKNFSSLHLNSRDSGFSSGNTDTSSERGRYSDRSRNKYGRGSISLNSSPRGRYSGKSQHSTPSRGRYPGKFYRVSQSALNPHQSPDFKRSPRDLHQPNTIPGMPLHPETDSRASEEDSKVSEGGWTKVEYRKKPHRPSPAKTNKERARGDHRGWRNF

`O=C(NCCCC1CCCCC1)c1ccc(CNC(=O)c2cnn(-c3ccccc3)c2C(F)(F)F)cc1`: the IC50 was determined as 5.8 µM.

Compound `Nc1c(C(=O)NCc2ccc(C(=O)NCCCC3CCCCC3)cc2)cnn1-c1ccccc1` yielded an IC50 of 0.91 µM.

The IC50 is the point on the concentration scale where inhibition reaches its midpoint. The low end stands for greater potency in that assay, the high end for weaker potency in that assay.
